Key:
cSrc = cSrc (Homo sapiens, UniProt P12931); test: c-Src enzyme inhibition (FRET); assay type: biochemical; conditions: Table 4a1
Protocol: (§1) The enzyme inhibitory activities of compounds disclosed herein are determined by FRET using synthetic peptides labelled with both donor and acceptor fluorophores (Z-LYTE, Invitrogen Ltd., Paisley, UK).
(§2) The relevant enzyme (3000 ng/mL or 2000 ng/mL respectively, 2.5 μL) is incubated with the test compound (either 4 μg/mL, 0.4 μg/mL, 0.04 μg/mL, or 0.004 μg/mL, 2.5 μL each) for 2 hr at RT. The FRET peptides (8 μM, 2.5 μL), and appropriate ATP solutions (2.5 μL, 800 μM for c-Src, and 60 μM ATP for Syk) are then added to the enzymes/compound mixtures and incubated for 1 hr. Development reagent (protease, 5 μL) is added for 1 hr prior to detection in a fluorescence microplate reader (Varioskan® Flash, ThermoFisher Scientific).
(§3) In all cases, the site-specific protease cleaves non-phosphorylated peptide only and eliminates the FRET signal. Phosphorylation levels of each reaction are calculated using the ratio of coumarin emission (donor) over fluorescein emission (acceptor), for which high ratios indicate high phosphorylation and low ratios indicate low phosphorylation levels.

Syk = Syk (Homo sapiens, UniProt P43405); test: Syk enzyme inhibition (FRET); assay type: biochemical; conditions: Table 4a1
Protocol: as §1, §2, §3

GSK3α = GSK3α (Homo sapiens, UniProt P49840); test: GSK 3α enzyme inhibition (FRET), Method 1; assay type: biochemical; conditions: Table 4a1
Protocol: as §1
The following two assay variants are used for determination of GSK 3a inhibition.
The inhibitory activities of compounds of the invention against the GSK 3a enzyme isoform (Invitrogen), are evaluated by determining the level of activation/phosphorylation of the target peptide. The GSK3-α protein (500 ng/mL, 2.5 μL) is mixed with the test compound (2.5 μL at either 4 μg/mL, 0.4 μg/mL, 0.04 μg/mL, or 0.004 μg/mL) for 2 hr at RT. The FRET peptide (8 μM, 2.5 μL), which is a phosphorylation target for GSK3α, and ATP (40 μM, 2.5 μL) are then added to the enzyme/compound mixture and the resulting mixture incubated for 1 hr. Development reagent (protease, 5 μL) is added for 1 hr prior to detection in a fluorescence microplate reader (Varioskan® Flash, ThermoFisher Scientific).
as §3

[1] = system: TNFα release, d-U937 cells; test: LPS-induced TNFα release in d-U937 cells; assay type: cell-based; conditions: Homo sapiens, dU937; relative to 10 μg/mL BIRB796; Table 4c1; read-out: LPS Induced Release of Cytokine in d-U937 Cells, TNFα REC50
Protocol: (§4) (a) LPS-Induced TNFα/IL-8 Release in d-U937Cells
U937 cells, a human monocytic cell line, are differentiated into macrophage-type cells by incubation with PMA (100 ng/mL) for 48 to 72 hr. Cells are pre-incubated with final concentrations of test compound for 2 hr and are then stimulated with LPS (0.1 μg/mL; from E. Coli: 0111:B4, Sigma) for 4 hr. The supernatant is collected for determination of TNFα and IL-8 concentrations by sandwich ELISA (Duo-set, R&D systems). […] The relative 50% effective concentration (REC50) is determined from the resultant concentration-response curve. The inhibition of IL-8 production is calculated at each concentration of test compound by comparison with vehicle control.

[2] = system: IL-8 release, d-U937 cells; test: LPS-induced IL-8 release in d-U937 cells; assay type: cell-based; conditions: Homo sapiens, dU937; Table 4c1; read-out: LPS Induced Release of Cytokine in d-U937 Cells, IL-8 IC50
Protocol: as §4
U937 cells, a human monocytic cell line, are differentiated into macrophage-type cells by incubation with PMA (100 ng/mL) for 48 to 72 hr. Cells are pre-incubated with final concentrations of test compound for 2 hr and are then stimulated with LPS (0.1 μg/mL; from E. Coli: 0111:B4, Sigma) for 4 hr. […] The relative 50% effective concentration (REC50) is determined from the resultant concentration-response curve.

[3] = system: ICAM-1 expression, BEAS2B cells; test: Poly I:C-induced ICAM-1 expression in BEAS2B cells; assay type: cell-based; conditions: Homo sapiens, BEAS-2B; read-out: Poly IC induced ICAM1 in BEAS2B, IC50
Protocol: (f) Poly I:C-Induced ICAM-1 Expression in BEAS2B Cells
Poly I:C is used in these studies as a simple, RNA virus mimic. Poly I:C-Oligofectamine mixture (1 μg/mL Poly I:C, ±2% Oligofectamine, 25 μL; Invivogen Ltd., San Diego, Calif., and Invitrogen, Carlsbad, Calif., respectively) is transfected into BEAS2B cells (human bronchial epithelial cells, ATCC). Cells are pre-incubated with final concentrations of test compounds for 2 hr and the level of ICAM1 expression on the cell surface is determined by cell-based ELISA. At a time point 18 hr after poly I:C transfection, cells are fixed with 4% formaldehyde in PBS (100 μL) and then endogenous peroxidase is quenched by the addition of washing buffer (100 μL, 0.05% Tween in PBS: PBS-Tween) containing 0.1% sodium azide and 1% hydrogen peroxide. Cells are washed with wash-buffer (3×200 μL). and after blocking the wells with 5% milk in PBS-Tween (100 μL) for 1 hr, the cells are incubated with anti-human ICAM-1 antibody (50 μL; Cell Signalling Technology, Danvers, Mass.) in 1% BSA PBS overnight at 4° C.
The cells are washed with PBS-Tween (3×200 μL) and incubated with the secondary antibody (100 μL; HRP-conjugated anti-rabbit IgG, Dako Ltd., Glostrup, Denmark). […] The ICAM-1 signal is detected by reading the absorbance at 450 nm against a reference wavelength of 655 nm using a spectrophotometer. The cells are then washed with PBS-Tween (3×200 μL) and total cell numbers in each well are determined by reading absorbance at 595 nm after Crystal Violet staining (50 μL of a 2% solution in PBS) and elution by 1% SDS solution (100 μL) in distilled water. The measured OD 450-655 readings are corrected for cell number by dividing with the OD595 reading in each well. The inhibition of ICAM-1 expression is calculated at each concentration of test compound by comparison with vehicle control.

d-U937 cells = test: Cell viability: MTT assay; assay type: cell-based, human; conditions: 1 μg/mL
Protocol: (l) The Effect of Test Compounds on Cell Viability: MTT Assay
Differentiated U937 cells are pre-incubated with each test compound (final concentration 1 μg/mL or 10 μg/mL in 200 μL media indicated below) under two protocols: the first for 4 hr in 5% FCS RPMI1640 media and the second in 10% FCS RPMI1640 media for 24 h. The supernatant is replaced with new media (200 μL) and MTT stock solution (10 μL, 5 mg/mL) is added to each well. After incubation for 1 hr the media are removed, DMSO (200 μL) is added to each well and the plates are shaken lightly for 1 hr prior to reading the absorbance at 550 nm. The percentage loss of cell viability is calculated for each well relative to vehicle (0.5% DMSO) treatment. Consequently an apparent increase in cell viability for drug treatment relative to vehicle is tabulated as a negative percentage.

Chain of cSrc (P12931 whole entry): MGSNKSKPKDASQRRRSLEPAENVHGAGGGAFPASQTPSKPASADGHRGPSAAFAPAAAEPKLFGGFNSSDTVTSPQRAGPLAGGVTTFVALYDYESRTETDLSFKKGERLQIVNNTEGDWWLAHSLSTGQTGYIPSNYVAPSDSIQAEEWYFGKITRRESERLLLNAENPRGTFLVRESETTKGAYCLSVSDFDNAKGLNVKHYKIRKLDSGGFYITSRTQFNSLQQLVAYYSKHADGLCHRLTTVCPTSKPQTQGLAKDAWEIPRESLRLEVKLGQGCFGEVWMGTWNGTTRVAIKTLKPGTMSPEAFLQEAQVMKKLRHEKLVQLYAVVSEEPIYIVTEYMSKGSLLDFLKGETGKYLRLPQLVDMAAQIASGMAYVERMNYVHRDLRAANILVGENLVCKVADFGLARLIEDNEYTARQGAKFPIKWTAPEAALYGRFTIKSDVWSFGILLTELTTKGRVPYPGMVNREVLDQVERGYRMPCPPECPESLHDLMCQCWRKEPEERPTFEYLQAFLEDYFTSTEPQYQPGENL
Chain of GSK3α (P49840 whole entry): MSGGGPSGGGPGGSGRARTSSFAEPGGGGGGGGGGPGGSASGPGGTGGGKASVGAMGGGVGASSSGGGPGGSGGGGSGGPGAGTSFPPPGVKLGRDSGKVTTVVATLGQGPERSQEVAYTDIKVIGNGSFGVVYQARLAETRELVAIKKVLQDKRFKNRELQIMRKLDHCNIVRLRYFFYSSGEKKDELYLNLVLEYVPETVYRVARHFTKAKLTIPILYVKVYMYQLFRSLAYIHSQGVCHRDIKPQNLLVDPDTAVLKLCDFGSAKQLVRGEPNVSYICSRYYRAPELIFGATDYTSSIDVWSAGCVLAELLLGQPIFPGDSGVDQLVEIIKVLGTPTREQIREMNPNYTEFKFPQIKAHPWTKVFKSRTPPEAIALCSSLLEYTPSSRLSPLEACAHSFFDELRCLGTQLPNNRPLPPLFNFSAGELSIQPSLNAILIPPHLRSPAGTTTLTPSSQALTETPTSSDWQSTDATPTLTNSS

SMILES | IC50 (cSrc) [nM] | IC50 (Syk) [nM] | IC50 (GSK3α) [nM] | EC50 [1] [nM] | IC50 [2] [nM] | IC50 [3] [nM] | Cell viability at time point in d-U937 cells, 4 h (d-U937 cells) | Cell viability at time point in d-U937 cells, 24 h (d-U937 cells)
COc1ccc(-n2nc(C(C)(C)C)cc2NC(=O)Nc2ccc(Oc3cc(Nc4cc(OC)cc(C(=O)NCCN5CCOCC5)c4)ncn3)c(C)c2C)cc1 [Example 91, 3-((6-(4-(3-(3-(tert-Butyl)-1-(4-methoxyphenyl)-1H-pyrazol-5-yl)ureido)-2,3-dimethylphenoxy)pyrimidin-4-yl)amino)-5-methoxy-N-(2-morpholinoethyl)benzamide] | < 1.3 | 131 | 3520 |  |  |  |  | 
COc1cc(Nc2nccc(Oc3ccc(NC(=O)Nc4cc(C(C)C)nn4-c4ccc(C)cc4)c4ccccc34)n2)cc(C(=O)NCCO)c1 [Example 63, N-(2-hydroxyethyl)-3-((4-((4-(3-(3-isopropyl-1-(p-tolyl)-1H-pyrazol-5-yl)ureido)naphthalen-1-yl)oxy)pyrimidin-2-yl)amino)-5-methoxybenzamide] | 37 | 865 |  | 0.7 | 1.4 | 10.1 | −ve (−ve and +ve indicate that the value is below and above respectively, the no significant effect threshold, defined as 30% inhibition at 1 μg/mL at the time point indicated) | −ve (−ve and +ve indicate that the value is below and above respectively, the no significant effect threshold, defined as 30% inhibition at 1 μg/mL at the time point indicated)
COc1cc(Nc2nccc(Oc3ccc(NC(=O)Nc4cc(C(C)(C)C)nn4-c4ccc(OC)nc4)c4ccccc34)n2)cc(C(=O)NCCN2CCOCC2)c1 [Example 57, 3-((4-((4-(3-(3-(tert-butyl)-1-(6-methoxypyridin-3-yl)-1H-pyrazol-5-yl)ureido)naphthalen-1-yl)oxy)pyrimidin-2-yl)amino)-5-methoxy-N-(2-morpholinoethyl)benzamide] | < 1 |  | 283 | 0.6 | 1.5 | 1.9 | −ve (−ve and +ve indicate that the value is below and above respectively, the no significant effect threshold, defined as 30% inhibition at 1 μg/mL at the time point indicated) | −ve (−ve and +ve indicate that the value is below and above respectively, the no significant effect threshold, defined as 30% inhibition at 1 μg/mL at the time point indicated)
COc1ccc(-n2nc(C(C)C)cc2NC(=O)Nc2ccc(Oc3ccnc(Nc4cccc(C(=O)NCCN5CCOCC5)c4)n3)c3ccccc23)cc1 [Example 20, 3-((4-((4-(3-(3-isopropyl-1-(4-methoxyphenyl)-1H-pyrazol-5-yl)ureido)naphthalen-1-yl)oxy)pyrimidin-2-yl)amino)-N-(2-morpholinoethyl)benzamide] |  | 15 | 317 | 1.4 |  |  | −ve (−ve and +ve indicate that the value is below and above respectively, the no significant effect threshold, defined as 30% inhibition at 1 μg/mL at the time point indicated) | −ve (−ve and +ve indicate that the value is below and above respectively, the no significant effect threshold, defined as 30% inhibition at 1 μg/mL at the time point indicated)

The remaining compounds from weak to strong by IC50 (Syk), led by results:

IC50 (cSrc) [nM] | IC50 (Syk) [nM] | IC50 (GSK3α) [nM] | EC50 [1] [nM] | IC50 [2] [nM] | SMILES | IC50 [3] [nM] | Cell viability at time point in d-U937 cells, 4 h (d-U937 cells) | Cell viability at time point in d-U937 cells, 24 h (d-U937 cells)
8 | 20 | > 13000 |  | 1.5 | C=C(C)c1cc(NC(=O)Nc2ccc(Oc3ccnc(Nc4cc(OC)cc(C(=O)NCCN5CCOCC5)c4)n3)c3ccccc23)n(-c2ccc(OC)cc2)n1 [Example 86, 3-Methoxy-5-((4-((4-(3-(1-(4-methoxyphenyl)-3-(prop-1-en-2-yl)-1H-pyrazol-5-yl)ureido)naphthalen-1-yl)oxy)pyrimidin-2-yl)amino)-N-(2-morpholinoethyl)-benzamide] |  | −ve (−ve and +ve indicate that the value is below and above respectively, the no significant effect threshold, defined as 30% inhibition at 1 μg/mL at the time point indicated) | −ve (−ve and +ve indicate that the value is below and above respectively, the no significant effect threshold, defined as 30% inhibition at 1 μg/mL at the time point indicated)
 | 5 | 217 | 0.2 | 0.8 | COc1ccc(-n2nc(C(C)(C)C)cc2NC(=O)Nc2ccc(Oc3ccnc(Nc4cc(OC)cc(C(=O)NCCN5CCOCC5)c4)n3)c3ccccc23)cc1 [Example 54, 3-((4-((4-(3-(3-(tert-butyl)-1-(4-methoxyphenyl)-1H-pyrazol-5-yl)ureido)naphthalen-1-yl)oxy)pyrimidin-2-yl)amino)-5-methoxy-N-(2-morpholinoethyl)benzamide] |  | −ve (−ve and +ve indicate that the value is below and above respectively, the no significant effect threshold, defined as 30% inhibition at 1 μg/mL at the time point indicated) | −ve (−ve and +ve indicate that the value is below and above respectively, the no significant effect threshold, defined as 30% inhibition at 1 μg/mL at the time point indicated)
